Reference: the supplement of paper PMC10307832

Assays:
Assay in all cases: relative viability (nuclei count vs DMSO), 5 days (fraction); higher = more cells survive
[1] = tested on: HCC-15
Method in brief: (§1)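 Lung cancer cell lines, seeded in 1536-well plates, were treated the following day by pin tool with a single drug or with five library-drug doses (not always all listed) in √10 steps on top of a fixed anchor-drug dose. Cells were fixed and nuclei stained in one step after 5 days, and nuclei were counted. Relative viability is the nuclei count for treated wells divided by that for vehicle wells, reported as medians of duplicate plates.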

[2] = tested on: NCI-H1793
Method in brief: as §1

[3] = tested on: NCI-H838
Method in brief: as §1

[4] = tested on: COR-L23
Method in brief: as §1

[5] = tested on: NCI-H1993
Method in brief: as §1

[6] = tested on: NCI-H1755
Method in brief: as §1

[7] = tested on: NCI-H2170
Method in brief: as §1

[8] = tested on: NCI-H2347
Method in brief: as §1

[9] = tested on: NCI-H1355
Method in brief: as §1

[10] = tested on: HARA
Method in brief: as §1

[11] = tested on: NCI-H1792
Method in brief: as §1

[12] = tested on: HOP-62
Method in brief: as §1

[13] = tested on: SK-MES-1
Method in brief: as §1

[14] = tested on: NCI-H647
Method in brief: as §1

[15] = tested on: NCI-H358
Method in brief: as §1

[16] = tested on: NCI-H522
Method in brief: as §1

[17] = tested on: NCI-H1734
Method in brief: as §1

[18] = tested on: NCI-H2009
Method in brief: as §1

[19] = tested on: NCI-H2228
Method in brief: as §1

[20] = tested on: UMC-11
Method in brief: as §1

[21] = tested on: COR-L 105
Method in brief: as §1

[22] = tested on: NCI-H1395
Method in brief: as §1

Compound: COc1nc(C)cnc1NS(=O)(=O)c1cccnc1-c1ccc(-c2nnco2)cc1 [Zibotentan] + Nc1nc2[nH]cc(CCc3ccc(C(=O)N[C@@H](CCC(=O)O)C(=O)O)cc3)c2c(=O)[nH]1 [Pemetrexed] (partner 0.2 µM)
- relative viability ([1]; first compound 0.08 µM): 0.221
- relative viability ([1]; first compound 0.253 µM): 0.22
- relative viability ([1]; first compound 0.8 µM): 0.217
- relative viability ([1]; first compound 2.53 µM): 0.227
- relative viability ([2]; first compound 0.08 µM): 0.942
- relative viability ([2]; first compound 0.253 µM): 0.785
- relative viability ([2]; first compound 0.8 µM): 0.799
- relative viability ([2]; first compound 2.53 µM): 1.08
- relative viability ([3]; first compound 0.08 µM): 0.249
- relative viability ([3]; first compound 0.253 µM): 0.234
- relative viability ([3]; first compound 0.8 µM): 0.23
- relative viability ([3]; first compound 2.53 µM): 0.252
- relative viability ([4]; first compound 0.08 µM): 0.214
- relative viability ([4]; first compound 0.253 µM): 0.185
- relative viability ([4]; first compound 0.8 µM): 0.207
- relative viability ([4]; first compound 2.53 µM): 0.204
- relative viability ([5]; first compound 0.08 µM): 0.695
- relative viability ([5]; first compound 0.253 µM): 0.557
- relative viability ([5]; first compound 0.8 µM): 0.557
- relative viability ([5]; first compound 2.53 µM): 0.545
- relative viability ([6]; first compound 0.08 µM): 0.44
- relative viability ([6]; first compound 0.253 µM): 0.453
- relative viability ([6]; first compound 0.8 µM): 0.383
- relative viability ([6]; first compound 2.53 µM): 0.455
- relative viability ([7]; first compound 0.08 µM): 0.264
- relative viability ([7]; first compound 0.253 µM): 0.256
- relative viability ([7]; first compound 0.8 µM): 0.445
- relative viability ([7]; first compound 2.53 µM): 0.248
- relative viability ([8]; first compound 0.08 µM): 0.416
- relative viability ([8]; first compound 0.253 µM): 0.463
- relative viability ([8]; first compound 0.8 µM): 0.465
- relative viability ([8]; first compound 2.53 µM): 0.471
- relative viability ([9]; first compound 0.08 µM): 1.04
- relative viability ([9]; first compound 0.253 µM): 1.05
- relative viability ([9]; first compound 0.8 µM): 1.03
- relative viability ([9]; first compound 2.53 µM): 1.07
- relative viability ([10]; first compound 0.08 µM): 0.247
- relative viability ([10]; first compound 0.8 µM): 0.183
- relative viability ([10]; first compound 2.53 µM): 0.292
- relative viability ([11]; first compound 0.08 µM): 0.911
- relative viability ([11]; first compound 0.253 µM): 0.662
- relative viability ([11]; first compound 0.8 µM): 0.813
- relative viability ([11]; first compound 2.53 µM): 1.14
- relative viability ([12]; first compound 0.08 µM): 0.319
- relative viability ([12]; first compound 0.253 µM): 0.408
- relative viability ([12]; first compound 0.8 µM): 0.281
- relative viability ([12]; first compound 2.53 µM): 0.352
- relative viability ([13]; first compound 0.08 µM): 0.953
- relative viability ([13]; first compound 0.253 µM): 0.815
- relative viability ([13]; first compound 0.8 µM): 0.827
- relative viability ([13]; first compound 2.53 µM): 1.03
- relative viability ([14]; first compound 0.08 µM): 0.165
- relative viability ([14]; first compound 0.253 µM): 0.171
- relative viability ([14]; first compound 0.8 µM): 0.181
- relative viability ([14]; first compound 2.53 µM): 0.201
- relative viability ([15]; first compound 0.08 µM): 0.189
- relative viability ([15]; first compound 0.253 µM): 0.141
- relative viability ([15]; first compound 2.53 µM): 0.184
- relative viability ([16]; first compound 0.08 µM): 0.909
- relative viability ([16]; first compound 0.253 µM): 1.03
- relative viability ([16]; first compound 0.8 µM): 0.881
- relative viability ([16]; first compound 2.53 µM): 0.758
- relative viability ([17]; first compound 0.08 µM): 0.404
- relative viability ([17]; first compound 0.253 µM): 0.423
- relative viability ([17]; first compound 0.8 µM): 0.396
- relative viability ([17]; first compound 2.53 µM): 0.44
- relative viability ([18]; first compound 0.08 µM): 1.03
- relative viability ([18]; first compound 0.253 µM): 1.01
- relative viability ([18]; first compound 0.8 µM): 1.01
- relative viability ([18]; first compound 2.53 µM): 1.03
- relative viability ([19]; first compound 0.08 µM): 0.323
- relative viability ([19]; first compound 0.253 µM): 0.33
- relative viability ([19]; first compound 0.8 µM): 0.291
- relative viability ([19]; first compound 2.53 µM): 0.346
- relative viability ([20]; first compound 0.08 µM): 0.671
- relative viability ([20]; first compound 0.253 µM): 0.727
- relative viability ([20]; first compound 0.8 µM): 0.742
- relative viability ([20]; first compound 2.53 µM): 0.859
- relative viability ([21]; first compound 0.08 µM): 1.08
- relative viability ([21]; first compound 0.253 µM): 0.87
- relative viability ([21]; first compound 0.8 µM): 1.21
- relative viability ([21]; first compound 2.53 µM): 1.05
- relative viability ([22]; first compound 0.08 µM): 1.01
- relative viability ([22]; first compound 0.253 µM): 0.801
- relative viability ([22]; first compound 0.8 µM): 0.81
- relative viability ([22]; first compound 2.53 µM): 0.901

Compound: COc1nc(C)cnc1NS(=O)(=O)c1cccnc1-c1ccc(-c2nnco2)cc1 [Zibotentan] + O=C(c1cc(Cc2n[nH]c(=O)c3ccccc23)ccc1F)N1CCN(C(=O)C2CC2)CC1 [Olaparib] (partner 8 µM)
- relative viability ([1]; first compound 0.08 µM): 0.717
- relative viability ([1]; first compound 0.253 µM): 0.703
- relative viability ([1]; first compound 0.8 µM): 0.774
- relative viability ([1]; first compound 2.53 µM): 0.649
- relative viability ([2]; first compound 0.08 µM): 0.998
- relative viability ([2]; first compound 0.253 µM): 0.835
- relative viability ([2]; first compound 0.8 µM): 0.796
- relative viability ([2]; first compound 2.53 µM): 0.957
- relative viability ([3]; first compound 0.08 µM): 0.756
- relative viability ([3]; first compound 0.253 µM): 0.747
- relative viability ([3]; first compound 0.8 µM): 0.827
- relative viability ([3]; first compound 2.53 µM): 0.849
- relative viability ([4]; first compound 0.08 µM): 0.324
- relative viability ([4]; first compound 0.253 µM): 0.284
- relative viability ([4]; first compound 0.8 µM): 0.395
- relative viability ([4]; first compound 2.53 µM): 0.352
- relative viability ([5]; first compound 0.08 µM): 1.01
- relative viability ([5]; first compound 0.253 µM): 0.842
- relative viability ([5]; first compound 0.8 µM): 0.853
- relative viability ([5]; first compound 2.53 µM): 1.08
- relative viability ([6]; first compound 0.08 µM): 0.893
- relative viability ([6]; first compound 0.253 µM): 0.846
- relative viability ([6]; first compound 0.8 µM): 0.908
- relative viability ([6]; first compound 2.53 µM): 0.907
- relative viability ([7]; first compound 0.08 µM): 0.571
- relative viability ([7]; first compound 0.253 µM): 0.648
- relative viability ([7]; first compound 0.8 µM): 0.522
- relative viability ([7]; first compound 2.53 µM): 0.568
- relative viability ([8]; first compound 0.08 µM): 0.47
- relative viability ([8]; first compound 0.253 µM): 0.596
- relative viability ([8]; first compound 0.8 µM): 0.635
- relative viability ([8]; first compound 2.53 µM): 0.615
- relative viability ([9]; first compound 0.08 µM): 0.829
- relative viability ([9]; first compound 0.253 µM): 0.691
- relative viability ([9]; first compound 0.8 µM): 0.751
- relative viability ([9]; first compound 2.53 µM): 0.756
- relative viability ([10]; first compound 0.08 µM): 0.856
- relative viability ([10]; first compound 0.8 µM): 0.455
- relative viability ([10]; first compound 2.53 µM): 0.883
- relative viability ([11]; first compound 0.08 µM): 0.235
- relative viability ([11]; first compound 0.253 µM): 0.408
- relative viability ([11]; first compound 0.8 µM): 0.323
- relative viability ([11]; first compound 2.53 µM): 0.373
- relative viability ([12]; first compound 0.08 µM): 0.429
- relative viability ([12]; first compound 0.253 µM): 0.34
- relative viability ([12]; first compound 0.8 µM): 0.503
- relative viability ([12]; first compound 2.53 µM): 0.502
- relative viability ([13]; first compound 0.08 µM): 0.705
- relative viability ([13]; first compound 0.253 µM): 0.465
- relative viability ([13]; first compound 0.8 µM): 0.68
- relative viability ([13]; first compound 2.53 µM): 0.787
- relative viability ([14]; first compound 0.08 µM): 0.592
- relative viability ([14]; first compound 0.253 µM): 0.421
- relative viability ([14]; first compound 0.8 µM): 0.665
- relative viability ([14]; first compound 2.53 µM): 0.494
- relative viability ([15]; first compound 0.08 µM): 0.735
- relative viability ([15]; first compound 0.253 µM): 0.323
- relative viability ([15]; first compound 2.53 µM): 0.689
- relative viability ([16]; first compound 0.08 µM): 0.65
- relative viability ([16]; first compound 0.253 µM): 0.75
- relative viability ([16]; first compound 0.8 µM): 0.681
- relative viability ([16]; first compound 2.53 µM): 0.703
- relative viability ([17]; first compound 0.08 µM): 0.593
- relative viability ([17]; first compound 0.253 µM): 0.588
- relative viability ([17]; first compound 0.8 µM): 0.653
- relative viability ([17]; first compound 2.53 µM): 0.699
- relative viability ([18]; first compound 0.08 µM): 0.688
- relative viability ([18]; first compound 0.253 µM): 0.589
- relative viability ([18]; first compound 0.8 µM): 0.671
- relative viability ([18]; first compound 2.53 µM): 0.787
- relative viability ([19]; first compound 0.08 µM): 0.658
- relative viability ([19]; first compound 0.253 µM): 0.573
- relative viability ([19]; first compound 0.8 µM): 0.863
- relative viability ([19]; first compound 2.53 µM): 0.924
- relative viability ([20]; first compound 0.08 µM): 0.321
- relative viability ([20]; first compound 0.253 µM): 0.409
- relative viability ([20]; first compound 0.8 µM): 0.44
- relative viability ([20]; first compound 2.53 µM): 0.438
- relative viability ([21]; first compound 0.08 µM): 0.68
- relative viability ([21]; first compound 0.253 µM): 0.605
- relative viability ([21]; first compound 0.8 µM): 0.721
- relative viability ([21]; first compound 2.53 µM): 0.784
- relative viability ([22]; first compound 0.08 µM): 0.401
- relative viability ([22]; first compound 0.253 µM): 0.486
- relative viability ([22]; first compound 0.8 µM): 0.436
- relative viability ([22]; first compound 2.53 µM): 0.495
